Patent US12653892B2, “Composition and method for new therapeutic agents including guanidinium-presenting dendrimers and branched structures” (priority 2020, dated 2026)
In brackets after ≈: the same amount, converted by molar mass. Read-outs that look alike come from different tables or passages of the source.

Tests used:
S. aureus ATCC 29213 [1] = assay: MIC by broth microdilution, S. aureus ATCC 29213; type: cell-based; conditions: for MIC, Antibiotic +NH2-triguan-6C / MIC, Antibiotic +NO2-triamine-2C / MIC, Antibiotic +NO2-triamine-6C: non-covalent mixture
Method: (§1) Methods—Determination of MICs: MICs for S. aureus, E. faecium, E. coli, P aeruginosa, A. baumannii, K. pneumoniae were determined using broth microdilution in accordance with CLSI methods (Wiegand, I.; Hilpert, K.; Hancock, R. E. W. Agar and Broth Dilution Methods to Determine the Minimal Inhibitory Concentration (MIC) of Antimicrobial Substances. Nat. Protoc. 2008, 3, 163-175). One day prior to each MIC experiment, bacterial strains were streaked for single colonies on TSA plates from frozen glycerol stocks stored at −80° C. Three to five colonies from each plate were harvested with a disposable inoculating loop and resuspended in 500 μL of PBS to create a bacterial suspension. Alternatively, a single colony of the appropriate bacterial strain was added to 4 mL TSB for overnight growth at 37° C. with 200 rpm shaking to create a stationary phase bacterial suspension. The suspension was diluted in PBS to an OD600 of 0.1 (˜[…] CFU/ml), and the OD 0.1 suspension was diluted 1:100 in Mueller Hinton broth (MHB, Difco 257530) just prior to inoculating the 96-well polypropylene treatment plate (Costar 3879). A 50 μL portion of inoculum was added to a treatment plate containing 2-fold serial dilutions of compound in MHB (50 μL of treatment/well) to lend a final total volume of 100 μL/well and a final inoculum density of ˜5×10^5 CFU/ml. The completed assay plate was sealed with Parafilm, placed in a lidded plastic tray lined with moistened paper towels, and incubated at 37° C. for approximately 20 hours. The MIC was read as the lowest treatment concentration where no bacterial growth occurred, as determined by OD600 measurements on a microplate reader. If a different plate or media type was used for a particular test, this is noted below the respective table.

S. aureus ATCC 29213 [2] = conditions: cited from earlier work
S. aureus USA400 (MRSA) = assay: MIC by broth microdilution, S. aureus USA400 (MRSA); type: cell-based; conditions: Staphylococcus aureus
Method: as §1, with “A 50 μL portion of inoculum was added to a treatment plate containing 2-fold serial dilutions of compound in MHB (50 μL of treatment/well) to lend a final total volume of 100 μL/well and a final inoculum density of ˜5×10^5 CFU/ml. The completed assay plate was sealed with Parafilm, placed in a lidded plastic tray lined with moistened paper towels, and incubated at 37° C. for approximately 20 hours.” left out, “If a different plate or media type was used for a particular test, this is noted below the respective table.” left out

M. smegmatis = assay: MIC, resazurin readout, M. smegmatis; type: cell-based; conditions: Mycolicibacterium smegmatis
Method: (§2) MICs for C. glutamicum and the mycobacteria, M. smegmatis and M. abscessus, were determined as follows. A suspension of stationary phase culture was adjusted with PBS to approximately 10^8 CFU/mL and diluted 1:100 in nutrient media just prior to inoculating 96-well polystyrene treatment plates (Costar 3370). Nutrient media was Mueller Hinton Broth for C. glutamicum and Middlebrook media (Middlebrook 7H9 Broth with 0.2% glycerol and 10% OADC supplement, Difco, BD) for mycobacteria. A 50 μL portion of inoculum was added to a treatment plate containing 2-fold serial dilutions of compounds in the same media (50 μL of treatment/well) to lend a final total volume of 100 μL/well and a final inoculum density of ˜5×10^5 CFU/ml. The completed assay plate was sealed with Parafilm, placed in a lidded plastic tray lined with moistened paper towels, and incubated at 37° C. for around 22 h (C. glutamicum), 42-44 h (M. smegmatis) or 46-48 hours (M. abscessus). […] The MIC was identified as the lowest treatment concentration of drug that prevented color change of resazurin from blue to pink/violet, as determined by measuring fluorescence in a black microtiter plate with excitation at 570 nm and emission at 615 nm on a Molecular Devices M5 microplate reader.

M. abscessus = assay: MIC, resazurin readout, M. abscessus; type: cell-based; conditions: Mycobacteroides abscessus
Method: as §2

C. glutamicum = assay: MIC, resazurin readout, C. glutamicum; type: cell-based; conditions: Corynebacterium glutamicum
Method: as §2

E. coli ATCC 25922 = assay: MIC by broth microdilution, E. coli ATCC 25922; type: cell-based; conditions: Escherichia coli, ATCC25922
Method: as §1

E. coli UTI89 = assay: MIC by broth microdilution, E. coli UTI89; type: cell-based; conditions: Escherichia coli
Method: as §1, with “A 50 μL portion of inoculum was added to a treatment plate containing 2-fold serial dilutions of compound in MHB (50 μL of treatment/well) to lend a final total volume of 100 μL/well and a final inoculum density of ˜5×10^5 CFU/ml. The completed assay plate was sealed with Parafilm, placed in a lidded plastic tray lined with moistened paper towels, and incubated at 37° C. for approximately 20 hours.” left out, “If a different plate or media type was used for a particular test, this is noted below the respective table.” left out

[3] = test system: E. coli NCTC 13846 (colistin-resistant); assay: MIC by broth microdilution, E. coli NCTC 13846; type: cell-based; conditions: Escherichia coli, NCTC13846
Method: as §1, with “A 50 μL portion of inoculum was added to a treatment plate containing 2-fold serial dilutions of compound in MHB (50 μL of treatment/well) to lend a final total volume of 100 μL/well and a final inoculum density of ˜5×10^5 CFU/ml. The completed assay plate was sealed with Parafilm, placed in a lidded plastic tray lined with moistened paper towels, and incubated at 37° C. for approximately 20 hours.” left out, “If a different plate or media type was used for a particular test, this is noted below the respective table.” left out

E. coli BW25113 = assay: MIC by broth microdilution, E. coli BW25113; type: cell-based; conditions: Escherichia coli
Method: as §1, with “A 50 μL portion of inoculum was added to a treatment plate containing 2-fold serial dilutions of compound in MHB (50 μL of treatment/well) to lend a final total volume of 100 μL/well and a final inoculum density of ˜5×10^5 CFU/ml. The completed assay plate was sealed with Parafilm, placed in a lidded plastic tray lined with moistened paper towels, and incubated at 37° C. for approximately 20 hours.” left out, “If a different plate or media type was used for a particular test, this is noted below the respective table.” left out

E. coli BW25113ΔtolC = assay: MIC by broth microdilution, E. coli BW25113ΔtolC; type: cell-based; conditions: Escherichia coli
Method: as §1, with “A 50 μL portion of inoculum was added to a treatment plate containing 2-fold serial dilutions of compound in MHB (50 μL of treatment/well) to lend a final total volume of 100 μL/well and a final inoculum density of ˜5×10^5 CFU/ml. The completed assay plate was sealed with Parafilm, placed in a lidded plastic tray lined with moistened paper towels, and incubated at 37° C. for approximately 20 hours.” left out, “If a different plate or media type was used for a particular test, this is noted below the respective table.” left out

A. baumannii ATCC 19606 = assay: MIC by broth microdilution, A. baumannii ATCC 19606; type: cell-based; conditions: Acinetobacter baumannii, ATCC19606
Method: as §1, with “A 50 μL portion of inoculum was added to a treatment plate containing 2-fold serial dilutions of compound in MHB (50 μL of treatment/well) to lend a final total volume of 100 μL/well and a final inoculum density of ˜5×10^5 CFU/ml. The completed assay plate was sealed with Parafilm, placed in a lidded plastic tray lined with moistened paper towels, and incubated at 37° C. for approximately 20 hours.” left out, “If a different plate or media type was used for a particular test, this is noted below the respective table.” left out

K. pneumoniae BAA-2146 = assay: MIC by broth microdilution, K. pneumoniae BAA-2146; type: cell-based; conditions: Klebsiella pneumoniae, BAA2146
Method: as §1, with “A 50 μL portion of inoculum was added to a treatment plate containing 2-fold serial dilutions of compound in MHB (50 μL of treatment/well) to lend a final total volume of 100 μL/well and a final inoculum density of ˜5×10^5 CFU/ml. The completed assay plate was sealed with Parafilm, placed in a lidded plastic tray lined with moistened paper towels, and incubated at 37° C. for approximately 20 hours.” left out, “If a different plate or media type was used for a particular test, this is noted below the respective table.” left out

[4] = test system: S. aureus USA400 (MRSA), MW2; assay: Minimum Bacterial Eradication Concentration (MBEC) assay; type: cell-based
E. coli 25922 = assay: Time-kill kinetics against E. coli 25922 (FIG. 2); type: cell-based
[5] = S. aureus (ATCC 29213), Mueller Hinton Broth, polypropylene plate
[6] = Staphylococcus aureus, ATCC29213, 20 h, S. aureus (ATCC 29213), Mueller Hinton Broth, polypropylene plate, read-out: MIC, Antibiotic Alone
[7] = S. aureus (ATCC 29213), Mueller Hinton Broth, polypropylene plate, read-out: MIC, Antibiotic Alone
[8] = S. aureus (ATCC 29213), cation-adjusted MHB2, polystyrene microwell plate (Costar 3370)

## O=C1CN(/N=C/c2ccc([N+](=O)[O-])o2)C(=O)N1 [Nitrofurantoin]
S. aureus ATCC 29213 [1]; [5]
  MIC, Antibiotic +NH2-triguan-6C: 128 µM (≈ 30.5 µg/mL)
  MIC, Antibiotic +NO2-triamine-2C: 256 µM (≈ 61 µg/mL)
  MIC, Antibiotic +NO2-triamine-6C: 256 µM (≈ 61 µg/mL)
S. aureus ATCC 29213 [1]; [6]
  MIC: 128 µM (≈ 30.5 µg/mL)

## CC1(C)S[C@@H]2[C@H](NC(=O)Cc3ccccc3)C(=O)N2[C@H]1C(=O)O [Penicillin G]
S. aureus ATCC 29213 [1]; [7]
  MIC: 2 µM (≈ 0.669 µg/mL)
S. aureus ATCC 29213 [1]; [5]
  MIC, Antibiotic +NH2-triguan-6C: 2 µM (≈ 0.669 µg/mL)
  MIC, Antibiotic +NO2-triamine-2C: 4 µM (≈ 1.34 µg/mL)
  MIC, Antibiotic +NO2-triamine-6C: 4 µM (≈ 1.34 µg/mL)
S. aureus ATCC 29213 [2]
  Literature MIC: 0.084 to 5.6 µM

## CO[C@H]1/C=C/O[C@@]2(C)Oc3c(C)c(O)c4c(O)c(c(/C=N/N5CCN(C)CC5)c(O)c4c3C2=O)NC(=O)/C(C)=C\C=C\[C@H](C)[C@H](O)[C@@H](C)[C@@H](O)[C@@H](C)[C@H](OC(C)=O)[C@@H]1C [Rifampicin]
S. aureus ATCC 29213 [1]; [5]
  MIC, Antibiotic +NH2-triguan-6C: 0.016 µM (≈ 0.0132 µg/mL)
  MIC, Antibiotic +NO2-triamine-2C: 0.016 µM (≈ 0.0132 µg/mL)
  MIC, Antibiotic +NO2-triamine-6C: 0.016 µM (≈ 0.0132 µg/mL)
S. aureus ATCC 29213 [1]; [6]
  MIC: 0.016 µM (≈ 0.0132 µg/mL)

## CN(C)[C@@H]1C(O)=C(C(N)=O)C(=O)[C@@]2(O)C(O)=C3C(=O)c4c(O)cccc4[C@@](C)(O)[C@H]3C[C@@H]12 [Tetracycline]
S. aureus ATCC 29213 [1]; [8]
  MIC, Antibiotic +NH2-triguan-6C: 2 µM (≈ 0.889 µg/mL)
  MIC, Antibiotic +NO2-triamine-2C: 2 µM (≈ 0.889 µg/mL)
  MIC, Antibiotic +NO2-triamine-6C: 2 µM (≈ 0.889 µg/mL)
S. aureus ATCC 29213 [1]; Staphylococcus aureus, ATCC29213, 20 h, S. aureus (ATCC 29213), cation-adjusted MHB2, polystyrene microwell plate (Costar 3370), read-out: MIC, Antibiotic Alone
  MIC: 2 µM (≈ 0.889 µg/mL)

## CN[C@H](CC(C)C)C(=O)N[C@H]1C(=O)N[C@@H](CC(N)=O)C(=O)N[C@H]2C(=O)N[C@H]3C(=O)N[C@H](C(=O)N[C@H](C(=O)O)c4cc(O)cc(O)c4-c4cc3ccc4O)[C@H](O)c3ccc(c(Cl)c3)Oc3cc2cc(c3O[C@@H]2O[C@H](CO)[C@@H](O)[C@H](O)[C@H]2O[C@H]2C[C@](C)(N)[C@H](O)[C@H](C)O2)Oc2ccc(cc2Cl)[C@H]1O [Vancomycin]
S. aureus ATCC 29213 [1]; [5]
  MIC, Antibiotic +NH2-triguan-6C: 1 µM (≈ 1.45 µg/mL)
  MIC, Antibiotic +NO2-triamine-2C: 1 µM (≈ 1.45 µg/mL)
  MIC, Antibiotic +NO2-triamine-6C: 0.5 to 1 µM
S. aureus ATCC 29213 [1]; Staphylococcus aureus, ATCC29213
  MIC: 0.5 to 1 µM (≈ 0.725 to 1.45 µg/mL)
S. aureus ATCC 29213 [1]; Staphylococcus aureus, ATCC29213, 20 h, read-out: MIC, Antibiotic Alone
  MIC: 0.5 to 1 µM (≈ 0.725 to 1.45 µg/mL)
S. aureus USA400 (MRSA)
  MIC: 1 µM (≈ 1.45 µg/mL)
M. smegmatis
  MIC: 8 to 16 µM (≈ 11.6 to 23.2 µg/mL)
M. abscessus
  MIC: 64 µM (≈ 92.8 µg/mL)
C. glutamicum
  MIC: 0.25 µM (≈ 0.362 µg/mL)
E. coli ATCC 25922
  MIC: 128 µM (≈ 186 µg/mL)
E. coli UTI89
  MIC: 128 µM (≈ 186 µg/mL)
[3]
  MIC: 64 to 128 µM (≈ 92.8 to 186 µg/mL)
E. coli BW25113
  MIC: 128 µM (≈ 186 µg/mL)
E. coli BW25113ΔtolC
  MIC: 128 to 256 µM (≈ 186 to 371 µg/mL)
A. baumannii ATCC 19606
  MIC: 128 µM (≈ 186 µg/mL)
K. pneumoniae BAA-2146
  MIC: > 256 µM
[4]
  MBEC: >512 µM
E. coli 25922
  Concentration at which effective in time-kill: 256 µM
S. aureus ATCC 29213 [2]
  Literature MIC: 0.34 to 1.4 µM

## Gentamicin
S. aureus ATCC 29213 [1]; [7]
  MIC: 0.5 µM
S. aureus ATCC 29213 [1]; [5]
  MIC, Antibiotic +NH2-triguan-6C: 0.5 µM
  MIC, Antibiotic +NO2-triamine-2C: 0.5 µM
  MIC, Antibiotic +NO2-triamine-6C: 1 µM
S. aureus ATCC 29213 [2]
  Literature MIC: 0.26 to 2.1 µM
